Measured values published in patent US20170050957A1, “4-AMINO-6-(HETEROCYCLIC)PICOLINATES AND 6-AMINO-2-(HETEROCYCLIC)PYRIMIDINE-4-CARBOXYLATES AND THEIR USE AS HERBICIDES” (Dow AgroSciences LLC, priority 2013, published 2017).
Like-named read-outs stand apart in the source and are kept apart here.

Experiments:
[1] = test system: Key Broadleaf Weed and Crop Species; experiment: Post-emergent Test II herbicidal activity (Table 15); assay type: in vivo; conditions: post-emergence, 336 h, 14 d; for pest or weed control at 35 g/ha: 35 g ai/ha; for pest or weed control at 70 g/ha: 70 g ai/ha; for pest or weed control at 140 g/ha: 140 g ai/ha
In short: (§1)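 Herbicidal effect scored as percent visual injury, 14 d after post-emergent application. Spray solutions contained acetone, DMSO, isopropyl alcohol, crop oil concentrate and surfactant, applied at 187 L/ha to young plants (1-2 true leaves).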

[2] = test system: Key Grass and Sedge Weeds as well as Grass Crops; experiment: Post-emergent Test II herbicidal activity (Table 16); assay type: in vivo; conditions: post-emergence, 336 h; for pest or weed control at 35 g/ha: 35 g ai/ha; for pest or weed control at 70 g/ha: 70 g ai/ha; for pest or weed control at 140 g/ha: 140 g ai/ha
In short: as §1

[3] = Abutilon theophrasti, velvetleaf (Abutilon theophrasti), read-out: Visual Growth Reduction (%) 14 Days After Application, ABUTH
[4] = Amaranthus retroflexus, redroot pigweed (Amaranthus retroflexus), read-out: Visual Growth Reduction (%) 14 Days After Application, AMARE
[5] = Brassica napus, oilseed rape, canola (Brassica napus), read-out: Visual Growth Reduction (%) 14 Days After Application, BRSNN
[6] = Chenopodium album, lambsquarters (Chenopodium album), read-out: Visual Growth Reduction (%) 14 Days After Application, CHEAL
[7] = Euphorbia heterophylla, wild poinsettia (Euphorbia heterophylla), read-out: Visual Growth Reduction (%) 14 Days After Application, EPHHL
[8] = Helianthus annuus, sunflower (Helianthus annuus), read-out: Visual Growth Reduction (%) 14 Days After Application, HELAN
[9] = Cyperus esculentus, yellow nutsedge (Cyperus esculentus), 14 days after application, read-out: Visual Growth Reduction (%) 14 Days After Application CYPES
[10] = Echinochloa crus-galli, barnyardgrass (Echinochloa crus-galli), 14 days after application, read-out: Visual Growth Reduction (%) 14 Days After Application ECHCG
[11] = Oryza sativa, rice (Oryza sativa), 14 days after application, read-out: Visual Growth Reduction (%) 14 Days After Application ORYSA
[12] = Setaria faberi, giant foxtail (Setaria faberi), 14 days after application, read-out: Visual Growth Reduction (%) 14 Days After Application SETFA
[13] = Triticum aestivum, wheat, spring (Triticum aestivum), 14 days after application, read-out: Visual Growth Reduction (%) 14 Days After Application TRZAS
[14] = Zea mays, maize, corn (Zea mays), 14 days after application, read-out: Visual Growth Reduction (%) 14 Days After Application ZEAMX
[15] = Cyperus esculentus, yellow nutsedge (Cyperus esculentus), 14 d, read-out: Visual Growth Reduction (%) 14 Days After Application, CYPES
[16] = Echinochloa crus-galli, barnyardgrass (Echinochloa crus-galli), 14 d, read-out: Visual Growth Reduction (%) 14 Days After Application, ECHCG
[17] = Oryza sativa, rice (Oryza sativa), 14 d, read-out: Visual Growth Reduction (%) 14 Days After Application, ORYSA
[18] = Setaria faberi, giant foxtail (Setaria faberi), 14 d, read-out: Visual Growth Reduction (%) 14 Days After Application, SETFA
[19] = Triticum aestivum, wheat, spring (Triticum aestivum), 14 d, read-out: Visual Growth Reduction (%) 14 Days After Application, TRZAS
[20] = Zea mays, maize, corn (Zea mays), 14 d, read-out: Visual Growth Reduction (%) 14 Days After Application, ZEAMX

| Compound | pest or weed control at 35 g/ha [1, 3] [%] | pest or weed control at 70 g/ha [1, 3] [%] | pest or weed control at 140 g/ha [1, 3] [%] | pest or weed control at 35 g/ha [1, 4] [%] | pest or weed control at 70 g/ha [1, 4] [%] | pest or weed control at 140 g/ha [1, 4] [%] | pest or weed control at 35 g/ha [1, 5] [%] | pest or weed control at 70 g/ha [1, 5] [%] | pest or weed control at 140 g/ha [1, 5] [%] | pest or weed control at 35 g/ha [1, 6] [%] | pest or weed control at 70 g/ha [1, 6] [%] | pest or weed control at 140 g/ha [1, 6] [%] | pest or weed control at 35 g/ha [1, 7] [%] | pest or weed control at 70 g/ha [1, 7] [%] | pest or weed control at 140 g/ha [1, 7] [%] | pest or weed control at 35 g/ha [1, 8] [%] | pest or weed control at 70 g/ha [1, 8] [%] | pest or weed control at 140 g/ha [1, 8] [%] | melting point [°C] | further results |
| --- | --- | --- | --- | --- | --- | --- | --- | --- | --- | --- | --- | --- | --- | --- | --- | --- | --- | --- | --- | --- |
| Nc1c(F)c(-c2ccc3scnc3c2)nc(C(=O)O)c1Cl [Compound 6.02] | 85 to 94 | 85 to 94 | 85 to 94 | 95 to 100 | 95 to 100 | 95 to 100 | 95 to 100 | 95 to 100 | 95 to 100 | 95 to 100 | 95 to 100 | 95 to 100 | 95 to 100 | 95 to 100 | 95 to 100 | 95 to 100 | 95 to 100 | 95 to 100 | 186 to 187 | pest or weed control at 35 g/ha [2, 9]: 45 to 59%; pest or weed control at 70 g/ha [2, 9]: 45 to 59%; pest or weed control at 140 g/ha [2, 9]: 45 to 59%; pest or weed control at 35 g/ha [2, 10]: 75 to 84%; pest or weed control at 70 g/ha [2, 10]: 75 to 84%; pest or weed control at 140 g/ha [2, 10]: 85 to 94%; pest or weed control at 35 g/ha [2, 11]: 0 to 29%; pest or weed control at 70 g/ha [2, 11]: 0 to 29%; pest or weed control at 140 g/ha [2, 11]: 0 to 29%; pest or weed control at 35 g/ha [2, 12]: 0 to 29%; pest or weed control at 70 g/ha [2, 12]: 45 to 59%; pest or weed control at 140 g/ha [2, 12]: 60 to 74%; pest or weed control at 35 g/ha [2, 13]: 0 to 29%; pest or weed control at 70 g/ha [2, 13]: 0 to 29%; pest or weed control at 140 g/ha [2, 13]: 30 to 44%; pest or weed control at 35 g/ha [2, 14]: 0 to 29%; pest or weed control at 70 g/ha [2, 14]: 0 to 29%; pest or weed control at 140 g/ha [2, 14]: 0 to 29% |
| Nc1nc(-c2ccc(Cl)c3occc23)nc(C(=O)O)c1Cl [Compound 2.23] | 0 to 29 | 0 to 29 | 0 to 29 | 95 to 100 | 95 to 100 | 95 to 100 | 0 to 29 | 0 to 29 | 0 to 29 | 95 to 100 | 95 to 100 | 95 to 100 | 0 to 29 | 0 to 29 | 0 to 29 | 85 to 94 | 95 to 100 | 95 to 100 | 173 to 174.5 | pest or weed control at 35 g/ha [2, 15]: 0 to 29%; pest or weed control at 70 g/ha [2, 15]: 0 to 29%; pest or weed control at 140 g/ha [2, 15]: 0 to 29%; pest or weed control at 35 g/ha [2, 16]: 0 to 29%; pest or weed control at 70 g/ha [2, 16]: 0 to 29%; pest or weed control at 140 g/ha [2, 16]: 0 to 29%; pest or weed control at 35 g/ha [2, 17]: 0 to 29%; pest or weed control at 70 g/ha [2, 17]: 0 to 29%; pest or weed control at 140 g/ha [2, 17]: 0 to 29%; pest or weed control at 35 g/ha [2, 18]: 0 to 29%; pest or weed control at 70 g/ha [2, 18]: 0 to 29%; pest or weed control at 140 g/ha [2, 18]: 0 to 29%; pest or weed control at 35 g/ha [2, 19]: 0 to 29%; pest or weed control at 70 g/ha [2, 19]: 0 to 29%; pest or weed control at 140 g/ha [2, 19]: 0 to 29%; pest or weed control at 35 g/ha [2, 20]: 0 to 29%; pest or weed control at 70 g/ha [2, 20]: 0 to 29%; pest or weed control at 140 g/ha [2, 20]: 0 to 29% |
